Some test systems named below: 786-0; CAKI-1; COLO 205; DMS-273; IGROV-1; Malme-3M; OVCAR-5; RPMI-8226; RXF 393; SK-MEL-28; SK-OV-3; SN12C; SNB-75; TK-10; SK-MEL-2.
Common to all, as to assay: NCI anticancer screen, dose series, 48 h

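Each compound was tested at five concentrations against cells in 96-well plates for 48 hours. GI50 = concentration required for 50% inhibition of growth.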 Activity calls are given as the source filed them. Rule as the data show it: active = GI50 up to about 1.1 µM and inactive = higher.

For `Cc1ccc(S(=O)OCc2c(C)c(C)c(COS(=O)c3ccc(C)cc3)c(C)c2C)cc1` (stereo unspecified), the GI50 in the experiment on 786-0, with CAKI-1, with COLO 205, in the experiment on DMS-273, with IGROV-1 and with Malme-3M was > 100 µM (inactive) each time. For the same compound, the GI50 in the experiment with OVCAR-5, with RPMI-8226, in the experiment on RXF 393, in the experiment with SK-MEL-28, with SK-OV-3 and in the experiment on SN12C was > 100 µM (inactive) in each case. Further, the GI50 with SNB-75 and in the experiment with TK-10 was > 100 µM (inactive) throughout.
With `C[P+](C)(CC(F)(F)F)c1ccccc1`, the GI50 in the experiment with 786-0, with COLO 205, in the experiment on DMS-273, with IGROV-1, in the experiment on Malme-3M and in the experiment on OVCAR-5 was > 100 µM (inactive) each time. Besides, the GI50 in the experiment with RPMI-8226, in the experiment on RXF 393, in the experiment on SK-MEL-2, in the experiment on SK-OV-3, in the experiment with SN12C and in the experiment on SNB-75 was > 100 µM (inactive) each time. Further, the GI50 in the experiment with TK-10 was > 100 µM (inactive).
Turning to `CNC(=O)CN(CC(=O)O)C(=O)NC`, the GI50 in the experiment with 786-0, with CAKI-1, with COLO 205, in the experiment with DMS-273, in the experiment with IGROV-1 and with Malme-3M was > 100 µM (inactive) each time. Further, the GI50 in the experiment on OVCAR-5, in the experiment on RPMI-8226, in the experiment with RXF 393, in the experiment on SK-MEL-2, with SK-OV-3 and with SNB-75 was > 100 µM (inactive) throughout. In addition, the GI50 in the experiment with TK-10 was > 100 µM (inactive).
For the compound `O=C1CCCC1NC(=O)C(F)(F)F` (stereo unspecified), the GI50 in the experiment with 786-0 was > 100 µM (inactive); in the experiment on CAKI-1 it was > 100 µM (inactive); in the experiment with DMS-273, > 100 µM (inactive); in the experiment with IGROV-1 it was > 100 µM (inactive); in the experiment on Malme-3M, 0.182 µM (active); in the experiment on OVCAR-5 it was > 100 µM (inactive). The GI50 in the experiment on RXF 393, with SK-MEL-28, in the experiment with SK-MEL-2, in the experiment on SK-OV-3, in the experiment with SN12C and in the experiment with SNB-75 was > 100 µM (inactive) in each case. In the experiment with TK-10, the GI50 is > 100 µM (inactive).
Turning to `O=[N+]([O-])C(/C=N/Nc1ccccc1)/C=N/Nc1ccccc1`, the GI50 in the experiment on 786-0, with CAKI-1, in the experiment on COLO 205, with DMS-273, in the experiment on IGROV-1 and in the experiment with Malme-3M was > 100 µM (inactive) in each case. For the same compound, the GI50 with OVCAR-5, in the experiment with RXF 393, in the experiment with SK-MEL-28, in the experiment with SK-MEL-2, with SK-OV-3 and with SN12C was > 100 µM (inactive) each time. Also, the GI50 with SNB-75 and in the experiment on TK-10 was > 100 µM (inactive) each time.
In the case of `COc1ccc(/C=C2\CCC(C)(CN(C)C)C2=O)cc1OC` (stereo unspecified), the GI50 in the experiment with 786-0, with CAKI-1, in the experiment with COLO 205, with DMS-273, in the experiment on IGROV-1 and in the experiment on Malme-3M was > 100 µM (inactive) in each case. For the same compound, the GI50 in the experiment on OVCAR-5, in the experiment with RPMI-8226, with RXF 393, with SK-MEL-28, in the experiment on SK-MEL-2 and in the experiment on SN12C was > 100 µM (inactive) each time. For the same compound, the GI50 in the experiment on SNB-75 and with TK-10 was > 100 µM (inactive) in each case.

Source of the values: ChEMBL document CHEMBL1201862, “PubChem BioAssay data set” (2004).
